Data on 7 compounds can be found in PubChem BioAssay (NCI).

Among the test systems are UACC-257 melanoma; SK-OV-3 ovarian; CAKI-1 renal; COLO 205 colon; SN12C renal; U251 CNS; SF-268 CNS; A549 NSCLC; IGROV1 ovarian; SK-MEL-5 melanoma.
Holding throughout (assay): NCI-60 cell line screen, 48 h

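Step 1: Grow cells in 96-well plates. Step 2: Expose to compound for 48 hours at 5 concentrations. Step 3: Interpolate endpoints linearly; if unreached, use highest concentration. TGI denotes the concentration required for complete inhibition of growth.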

In the case of `CC[C@H](C)C1=C(O)[N@+]2([O-])Oc3ccc(-c4c(O)c(O)c(-c5ccc(OC(C)=O)cc5)c(OC(C)=O)c4OC(C)=O)cc3O[C@]2([C@@H](C)CC)C(=O)N1O`, the TGI in the test on UACC-257 melanoma, in the test with SK-OV-3 ovarian, in the test with CAKI-1 renal, in the test with COLO 205 colon, with SN12C renal and in the test on U251 CNS was more than 50 µM in each case. The TGI in the test on SF-268 CNS is more than 50 µM; in the test on A549 NSCLC, more than 50 µM; in the test with IGROV1 ovarian, 18.6 µM; with SK-MEL-5 melanoma, more than 50 µM.

Turning to `Nc1ccc(Nc2c3ccccc3nc3ccccc23)cc1`, the TGI with UACC-257 melanoma is more than 10 µM; in the test on SK-OV-3 ovarian, more than 10 µM; in the test on CAKI-1 renal, 6.94 µM; in the test on COLO 205 colon, more than 10 µM; with SN12C renal it was more than 10 µM; with U251 CNS, more than 10 µM. The TGI in the test with SF-268 CNS, in the test with A549 NSCLC, with IGROV1 ovarian and in the test with SK-MEL-5 melanoma was more than 10 µM throughout.

Turning to `COc1cc(C)c2c(=O)c3c(oc2c1)C(=O)c1c(O)c(OC)cc(O)c1C3=O`, the TGI with UACC-257 melanoma was 3.1 µM; in the test on SK-OV-3 ovarian it was 3.98 µM; in the test on CAKI-1 renal, 1.85 µM; in the test on COLO 205 colon, more than 43.4 µM; with SN12C renal it was 5.3 µM; in the test on U251 CNS it was 2.53 µM. Also, the TGI in the test on SF-268 CNS was more than 50 µM; in the test with A549 NSCLC it was 7.84 µM; in the test with IGROV1 ovarian, 4.29 µM; in the test with SK-MEL-5 melanoma it was 2.33 µM.

As for `O=C1c2ccccc2C(=O)c2c1ccc(C(=O)O)c2-c1ccc2ccccc2c1`, the TGI is more than 100 µM in the test with UACC-257 melanoma; more than 100 µM with SK-OV-3 ovarian; more than 100 µM with CAKI-1 renal; 30.1 µM in the test with COLO 205 colon; 88.8 µM in the test on SN12C renal; 55.4 µM in the test on U251 CNS. The TGI in the test with SF-268 CNS was 98.1 µM; with A549 NSCLC, more than 100 µM; in the test on IGROV1 ovarian, 68.3 µM; in the test on SK-MEL-5 melanoma, 39.4 µM.

For the compound `CC1(O)CC23CC1CCC2(C)C12CCCC(C)(C(=O)O1)C2CC3O` (stereo not given), the TGI with UACC-257 melanoma, in the test with SK-OV-3 ovarian, in the test with CAKI-1 renal, in the test on COLO 205 colon, in the test with SN12C renal and in the test on U251 CNS was more than 100 µM throughout. The TGI with SF-268 CNS, with A549 NSCLC, with IGROV1 ovarian and with SK-MEL-5 melanoma was more than 100 µM throughout.

Take `C[C@]12CC[C@H](O)C=C1CC[C@@H]1[C@@H]2CC[C@]2(C)C(=N/O)/C(=C/c3ccncc3)C[C@@H]12`: the TGI in the test on UACC-257 melanoma was 32.8 µM; in the test with SK-OV-3 ovarian it was 34.9 µM; in the test on CAKI-1 renal, more than 100 µM; in the test with COLO 205 colon, 38.8 µM; with SN12C renal it was 32.8 µM; in the test with U251 CNS it was 19.6 µM. In addition, the TGI was 49.4 µM in the test on SF-268 CNS, 29.8 µM with A549 NSCLC, 81.6 µM in the test on IGROV1 ovarian and 18 µM in the test with SK-MEL-5 melanoma.

As for `Cc1c2cccc-2ccc2c1[nH]c1ccc(Br)cc12`, the TGI in the test on UACC-257 melanoma was more than 100 µM; with SK-OV-3 ovarian it was 28.7 µM; in the test on CAKI-1 renal it was 24.9 µM; with COLO 205 colon, 4.33 µM; with SN12C renal, 27.2 µM; in the test on U251 CNS it was 12.1 µM. In addition, the TGI with SF-268 CNS turned out to be 17.2 µM; in the test with A549 NSCLC it was 17.5 µM; in the test with IGROV1 ovarian, 15 µM; with SK-MEL-5 melanoma it was 13.4 µM.
